In PubChem BioAssay (NCI):
“And” between values parts separate entries of the source, which are not always exact repeats. Equal values may be shown once.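 Cultured in 96-well plates, cells were exposed to test compound for 48 hours across five concentrations. At the GI50, growth is halved. At the TGI there is no net growth.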

Each molecule was assayed on MDA-MB-468 breast (assay: inhibition of tumour cell growth, NCI panel, 48 h).
`CN1CCN(Cc2ccc(NC(=O)c3cncc(C#Cc4cncc5nccnc45)c3)cc2C(F)(F)F)CC1` showed a GI50 of 7060 nM and a TGI of 15900 nM.
In the case of `COCCN1CCN(Cc2ccc(-c3n[nH]c4c3C(=O)c3c(NC(=O)NN5CCOCC5)cccc3-4)cc2)CC1`, the GI50 is reported as 19.8 nM and the TGI is reported as 66.9 nM.
Work on `CCCCC(=O)N/N=C/c1c(O)ccc2ccccc12` yielded a GI50 of 999 nM and a TGI of 11700 nM.
`Cn1c2ccccc2c2c3[nH][nH]c(=O)c3c3c4ccccc4[nH]c3c21` gave a GI50 of 2280 nM and a TGI of 9190 nM.
`Cc1cc2nc3cc(C)c(N)cc3[n+](-c3ccccc3)c2cc1N` was tested, and the GI50 was 79.8 nM and the TGI was 1120 nM.
In the case of `CCCCNC(=O)c1cc(NCc2cc(O)ccc2O)ccc1O`, the GI50 is reported as 12300 nM and the TGI is reported as 33900 nM.
`Cc1ccc(C(SCC(N)C(=O)O)(c2ccccc2)c2ccccc2)cc1` (stereo not given) was tested, and the GI50 was 45.3 nM and the TGI was greater than 49500 nM.
With `CCCNC(=O)c1ccc(Cl)cc1Cl` the GI50 was greater than 100000 nM and the TGI was greater than 100000 nM.
Work on `COc1cc(-c2n/c(=C\c3c(O)[nH]c4cc(Cl)ccc34)cc3c2=Nc2ccccc2-3)cc(OC)c1OC` yielded a GI50 of 3340 nM and a TGI of 20900 nM.
Molecule `N#Cc1c(N)nc(N)nc1N[C@H](c1nc2c(F)ccc(Cl)c2c(=O)n1-c1cccnc1)C1CC1` has a GI50 of 2040 nM and a TGI of 13900 nM.
Molecule `OCCNCCCOc1ccc2ncnc(Nc3ccc(Oc4cccc(C(F)(F)F)c4)c(Cl)c3)c2c1` has a GI50 of 626 nM and a TGI of 2210 nM.
`COc1ccc(/C=C2\CN(Cc3cn(CCNc4ccnc5cc(Cl)ccc45)nn3)C/C(=C\c3ccc(OC)c(OC)c3)C2=O)cc1OC` was tested, and the GI50 was 1510 nM and the TGI was 4410 nM.
For `CCc1cc2ncc(CN3CCN(c4ccc(C(=O)NC)nc4)CC3)cc2[nH]c1=O`, the GI50 was 13300 nM and the TGI was greater than 100000 nM.
Molecule `O=C1C(=O)c2ccccc2C(O)=C1CCCc1ccc(C2CCCCCC2)cc1` has a GI50 of 397 nM and a TGI of 17200 nM.
With `CC(C)n1nc(-c2ccc3oc(N)nc3c2)c2c(N)ncnc21` the GI50 was < 10 nM and 10.1 nM and the TGI was 64.9 nM and 63.3 nM.
In the case of `CCCCNC(=O)Oc1ccc(/C(=C(/C)Cc2ccc(OC)cc2)c2ccc(OCCN3CCCC3)cc2)cc1`, the GI50 is reported as 1720 nM and the TGI is reported as 3430 nM.
`CCC(=O)Nc1ccccc1C#C/C=C\C#Cc1ccccc1C(F)(F)F` showed a GI50 of 1980 nM and a TGI greater than 14000 nM.
`COc1ccc(Cn2cc3c(c2-c2cc(OC)c(OC)c(OC)c2)CCc2c(CN4CCOCC4)noc2-3)cc1` was tested, and the GI50 was 453 nM and the TGI was greater than 100000 nM.
`NCCOc1ccccc1/C=C1\c2ccccc2-c2ccc([N+](=O)[O-])cc21` was tested, and the GI50 was 1540 nM and the TGI was 3110 nM.
In the case of `CN(C)CC(C(=O)Cc1ccccc1)c1ccccc1` (stereo not given), the GI50 is reported as 494 nM and the TGI is reported as 2050 nM.
With `COc1ccc2c(Cl)cc(NC(=O)Nc3c(C)cccc3C)nc2c1` the GI50 was 84800 nM and the TGI was greater than 100000 nM.
With `Cc1[nH]c(-c2nc3ccccc3[nH]2)c(C)c1C(=O)NC(C)C1CCCCC1` (stereo not given) the GI50 was 6820 nM and the TGI was 28300 nM.
For `Cc1nc(N)sc1-c1csc(Nc2ccc(C(F)(F)F)cc2)n1`, the GI50 was 2250 nM and the TGI was 8770 nM.
Work on `COc1ccc2c(c1)CCCN2S(=O)(=O)c1ccccc1[N+](=O)[O-]` yielded a GI50 of 25700 nM and a TGI of 95100 nM.
`C#C[C@]1(O)CC[C@H]2[C@@H]3CC=C4c5sc(Nc6cc(OC)ccc6OC)nc5CC[C@]4(C)[C@H]3CC[C@@]21C` was tested, and the GI50 was 1530 nM and the TGI was 3960 nM.
With `O=C1Nc2ccccc2/C1=C\c1nc(C2CCN(S(=O)(=O)c3ccc(F)cc3)CC2)n2ccccc12` the GI50 was 3920 nM and the TGI was greater than 100000 nM.
`COc1cc(-c2cc(/C=C/C(=O)c3ccc(Cl)c(Cl)c3)[nH]n2)cc(OC)c1OC` showed a GI50 of 1980 nM and a TGI of 7220 nM.
`COc1cc(N2CCN(C(C)C)CC2)ccc1Nc1nc(Nc2cccc(F)c2C(=O)O)c2cc[nH]c2n1` showed a GI50 greater than 25000 nM and a TGI greater than 25000 nM.
Work on `CN1CCN(c2nc(NCCCNc3ccnc4cc(Cl)ccc34)c3ccccc3n2)CC1` yielded a GI50 of 2140 nM and a TGI of 6140 nM.
`CN(c1ccc(Br)cc1)S(=O)(=O)c1ccc(-c2cnc(C3CC3)o2)cc1` was tested, and the GI50 was 41.4 nM.
`O=[n+]1c2ccccc2n([O-])c2cc(Cl)ccc21` was tested, and the GI50 was 1240 nM and the TGI was 4960 nM.
`Cc1cc(C(=O)O)c(C)n1-c1cccc(C(=O)O)c1` gave a GI50 greater than 100000 nM and a TGI greater than 100000 nM.
For `c1cncc(C2Nc3cccc4cccc(c34)N2)c1`, the GI50 was 2930 nM and the TGI was 16700 nM.
`Cc1cc(N2CCCC2)nc(NCc2cc(Nc3ccnc4cc(Cl)ccc34)ccc2F)n1` gave a GI50 of 1140 nM and a TGI of 2610 nM.
Molecule `COC(=O)/C=C1/SC(N2N=C(c3cccs3)CC2c2ccc(F)cc2)=NC1=O` (stereo not given) has a GI50 of 1940 nM and a TGI of 4370 nM.
In the case of `CCN(CC)CCN(Cc1ccc(F)cc1)c1ccc(CO)c(Cl)c1`, the GI50 is reported as 430 nM and the TGI is reported as 1750 nM.
In the case of `Cc1ccc(C2=Nc3c(N)ncnc3NC(c3ccc4c(c3)OCO4)C2)cc1` (stereo not given), the GI50 is reported as 3680 nM and the TGI is reported as greater than 100000 nM.
`CCOC(=O)c1c(C)nc2c(c1N)CC(=O)N2CCc1ccccc1` showed a GI50 of 2390 nM and a TGI of 30000 nM.
For `Cc1cc(C(=O)NC(CCC(=O)O)C(=O)O)sc1CCC1CNc2nc(N)[nH]c(=O)c2C1` (stereo not given), the GI50 was 58.4 nM and 83.8 nM and the TGI was greater than 100000 nM.
In the case of `C[n+]1c(-c2ccc(/C=N/NC(=O)c3ccc(C(=O)N/N=C/c4ccc(-c5cn6ccccc6[n+]5C)cc4)cc3)cc2)cn2ccccc21`, the GI50 is reported as 114000 nM and the TGI is reported as 326000 nM.
In the case of `C[C@]12CC[C@H]3[C@@H](C[C@@H]4SC(Nc5ccccc5)=N[C@@]45CC(O)CC[C@]35C)[C@@H]1CCC2O` (stereo not given in full), the GI50 is reported as 1720 nM and the TGI is reported as 3380 nM.
`COc1cc2ncnc(Nc3ccc4c(cnn4Cc4ccccc4)c3)c2cc1OC` showed a GI50 of 59.6 nM and a TGI of 584 nM.
Work on `CCCCc1n(Cc2ccc3ccccc3c2)cc[n+]1Cc1ccc2ccccc2c1` yielded a GI50 of 297 nM and a TGI of 1130 nM.
`N=C(N)c1ccc(-c2ccc(-c3cccs3)s2)s1` gave a GI50 of 217 nM and a TGI of 651 nM.
`COc1cc(C2C3=C(COC3=O)Nc3c2ccc2c3CCCC2)cc2c1OCO2` (stereo not given) gave a GI50 of 28.7 nM and a TGI of 98.6 nM.
Work on `Cc1[nH]nc2c1N=C(c1ccccc1F)c1cc(C(N)=O)ccc1N2` yielded a GI50 of 1160 nM and a TGI of 8000 nM.
With `Nc1nc(N)c2c(n1)NC(c1ccccc1)C1CCc3ccccc3C1=N2` (stereo not given) the GI50 was 473 nM and the TGI was 3250 nM.
With `C[C@]1(Cn2ccnn2)C(C(=O)O)N2C(=O)CC2S1(=O)=O` (stereo not given in full) the GI50 was greater than 100000 nM and the TGI was greater than 100000 nM.
